Legend:
human TPO receptor [1] = target: T1, human TPO receptor (Homo sapiens, UniProt P40238); test: Proliferation of TPO-dependent cell line UT7/EPO-mpl, MTT method (Assay Examples 1, 3, 4); type: cell-based; conditions: UT7/EPO-mpl cells; for EC50: concentration giving 50% of the maximum cell growth observed with the same compound
T1 construct: expressed in transfected cells
T1 sequence (P40238 26-635): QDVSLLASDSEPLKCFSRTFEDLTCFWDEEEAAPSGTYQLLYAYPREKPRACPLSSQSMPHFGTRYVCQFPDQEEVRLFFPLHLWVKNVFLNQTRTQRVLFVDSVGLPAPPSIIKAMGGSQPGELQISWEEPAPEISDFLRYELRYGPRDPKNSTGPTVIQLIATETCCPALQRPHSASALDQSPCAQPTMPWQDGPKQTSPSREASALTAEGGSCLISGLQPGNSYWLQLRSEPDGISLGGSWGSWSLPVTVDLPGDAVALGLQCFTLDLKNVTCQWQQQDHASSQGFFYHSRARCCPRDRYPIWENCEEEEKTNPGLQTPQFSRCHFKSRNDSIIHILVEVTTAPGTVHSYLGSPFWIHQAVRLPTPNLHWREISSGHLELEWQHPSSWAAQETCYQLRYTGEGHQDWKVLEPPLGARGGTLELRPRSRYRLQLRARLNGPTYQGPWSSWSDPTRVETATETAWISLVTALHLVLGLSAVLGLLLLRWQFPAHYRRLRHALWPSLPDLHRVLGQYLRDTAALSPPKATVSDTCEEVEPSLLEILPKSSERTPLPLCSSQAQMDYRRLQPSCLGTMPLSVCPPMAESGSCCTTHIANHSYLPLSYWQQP
Protocol: The reactivity of Synthetic Example 56, the compound of the present invention, with thrombopoietin (TPO) receptor was assayed using a human leukemic cell line, UT7/EPO-mpl.
UT7/EPO-mpl is a stable transformed cell line obtained by introducing into human leukemic cell line UT7/EPO a vector that induces expression of human TPO receptor (c-mp1) under control of a cytomegaloviral promoter by the method of Takatoku et al. (J. Biol. Chem., 272:7259-7263 (1997)). […] These two cell lines were subcultured in Iscove's modified Dulbecco's medium (IMDM; GIBCO) containing 10% fetal bovine serum (FBS; TRACE SCIENTIFIC) using a CO2 incubator (5% CO2, 37° C.).
The subcultured cells described above were washed twice with phosphate buffered saline (PBS) and suspended in IMDM containing 10% FBS at a cell density of 6×10^4 cells/ml. The cell suspension was transferred to a 96-well tissue culture plate (CORNING) in 100-μl aliquots. Then either TPO (PeproTech EC) or Synthetic Example 56 dissolved in dimethylsulfoxide (DMSO) was diluted 83-fold with IMDM containing 10% FBS and added to the aforementioned cell suspension in 20-μl aliquots. The suspension was incubated in a CO2 incubator (5% CO2, 37° C.) for 4 days. Cell proliferation was assayed according to the method of Mosmann et al. (J. Immunol. Methods, 65:55-63 (1983)). A 10-μl aliquot of 5 mg/ml MTT reagent (SIGMA) was added to each well of the tissue culture plate and the plate was incubated at 37° C. for 4 h. The formazan pigment generated was dissolved by adding 150 μl per well of 0.1 M HCl/isopropanol solution and the absorbance of the resulting pigment solution was measured at 550 nm with a 96-well microplate reader (BIO-RAD, M450).
The following Synthetic Examples were tested according to the method of Assay Example 1 to determine the maximal growth rate (efficacy), expressed by taking the value with human leukemic cell line UT7/EPO-mpl observed in the presence of 10 ng/ml TPO as 100% standard, and the concentration of each compound that yields a growth rate corresponding to 50% of the maximum cell growth observed with the same compound (EC50).
Synthetic Example 56, the compound of the present invention, and four compounds (Reference Synthetic Examples 1 to 4) described in a publication of international patent application (Publication No. WO01/34585, applied by SmithKline Beecham Corp.) were tested according to the method of Assay Example 1.

human TPO receptor [2] = target: T1, human TPO receptor; test: Proliferation of TPO-dependent cell line UT7/EPO-mpl, WST-8 reagent (Assay Example 5); type: cell-based; conditions: WST-8, 4 days; for Efficacy (%) (maximal growth rate): growth with 10 ng/ml TPO = 100%
Protocol: Human leukemic cell line UT7/EPO-mpl was washed twice with PBS and suspended in IMDM containing 10% FBS at a cell density of 6×10^4 cells/ml. The cell suspension was transferred to a 96-well tissue culture plate (CORNING) in 100-μl aliquots. Then either TPO or the following Synthetic Examples, each dissolved in DMSO, were diluted 83-fold with IMDM containing 10% FBS and added to the aforementioned cell suspension in 20-μl aliquots. The suspension was incubated in a CO2 incubator (5% CO2, 37° C.) for 4 days. Cell proliferation was assayed using WST-8 reagent (Kishida Chemical, Co. Ltd.) according to instructions by the manufacturer. A 10-μl aliquot of 5 mM WST-8 reagent solution was added to each well of the tissue culture plate and the plate was incubated at 37° C. for 4 h. The formazan pigment generated was detected by measuring the absorbance at 450 nm with a 96-well microplate reader (Nihon Molecular Devices, SpectraMax 190). The concentration of each compound that yields a growth rate corresponding to 50% of the growth of human leukemic cell line UT7/EPO-mpl observed in the presence of 10 ng/ml TPO (EC50T) and the maximal growth rate achieved by the same compound (efficacy), expressed by taking the value with human leukemic cell line UT7/EPO-mpl in the presence of 10 ng/ml TPO as 100% standard, are summarized in Table 9.

[3] = value in the presence of 10 ng/ml TPO taken as 100% standard, method of Assay Example 1

Structure (SMILES)	EC50 (human TPO receptor [1]) [µg/mL]	Efficacy (%) (maximal growth rate) (human TPO receptor [1]; [3])	EC50T (concentration yielding 50% of the growth observed with 10 ng/ml TPO) (human TPO receptor [2]) [µg/mL]	Efficacy (%) (maximal growth rate) (human TPO receptor [2])	further results
CC1=NN(c2ccc(C)c(C)c2)C(=O)C1=C(C)NNC(=O)c1cccc(N)c1 [compound 74]	0.025	77			
CC1=NN(c2ccc(C)c(C)c2)C(=O)C1=C(C)NNC(=O)c1ccc(C(F)(F)F)cc1 [compound 75]	0.063	89			
CC1=NN(c2ccc(C)c(C)c2)C(=O)C1=C(C)NNC(=O)c1ccc(C(C)(C)C)cc1 [compound 76]	0.046	79			
CC1=NN(c2ccc(Cl)c(Cl)c2)C(=O)C1=C(C)NNC(=O)c1ccc(N)cc1 [compound 77]	0.0051	78			
CC1=NN(c2ccc(Cl)c(Cl)c2)C(=O)C1=C(C)NNC(=O)c1cccc(N)c1 [compound 78]	0.015	69			
CC1=NN(c2ccc(Cl)c(Cl)c2)C(=O)C1=C(C)NNC(=O)c1ccc(C(F)(F)F)cc1 [compound 79]	0.16	81			
CC1=NN(c2ccc(Cl)c(Cl)c2)C(=O)C1=C(C)NNC(=O)c1ccc(C(C)(C)C)cc1 [compound 80]	0.64	71			
CC1=NN(c2ccc(C(C)(C)C)cc2)C(=O)C1=C(C)NNC(=O)c1cccc(O)c1 [compound 81]	0.0072	84			
CC1=NN(c2ccc(C)c(C)c2)C(=O)C1=C(C)NNC(=O)c1cccc(O)c1 [compound 82]	0.026	84			
CC1=NN(c2ccc(Cl)c(Cl)c2)C(=O)C1=C(C)NNC(=O)c1cccc(O)c1 [compound 83]					EC50 (human TPO receptor [1]; read-out: EC50 (ng/ml) (converted)): 14.5 nM; Emax (human TPO receptor [1]; value in the presence of 10 ng/ml TPO taken as 100% standard, method of Assay Example 1, read-out: Efficacy (%) (maximal growth rate)): 78%
CC1=NN(c2cccc([N+](=O)[O-])c2)C(=O)C1=C(C)NNC(=O)c1cccc([N+](=O)[O-])c1 [compound 84]	0.13	109			
CC1=NN(c2cccc([N+](=O)[O-])c2)C(=O)C1=C(C)NNC(=O)c1ccc(O)cc1O [compound 86]	0.021	105			
CC1=NN(c2ccccn2)C(=O)C1=C(C)NNC(=O)c1ccc(O)cc1O [compound 87]	0.6	71			
CC1=NN(c2cccc([N+](=O)[O-])c2)C(=O)C1=C(C)NNC(=O)c1ccc(C(C)(C)C)cc1 [compound 88]	0.13	70			
CC1=NN(c2cccc(C(F)(F)F)c2)C(=O)C1=C(C)NNC(=O)c1cccc(N)c1 [compound 89]	0.039	68			
CC1=NN(c2cccc(C(F)(F)F)c2)C(=O)C1=C(C)NNC(=O)c1ccc(N)cc1 [compound 90]	0.021	76			
CC1=NN(c2ccc(C(F)(F)F)cc2)C(=O)C1=C(C)NNC(=O)c1cccc(N)c1 [compound 91]	0.024	81			
CC1=NN(c2ccc(C(F)(F)F)cc2)C(=O)C1=C(C)NNC(=O)c1ccc(N)cc1 [compound 92]	0.0055	82			
CC1=NN(c2ccc(C)c(C)c2)C(=O)C1=CNNC(=O)c1ccc(O)cc1O [compound 93]	0.0043	84			
CC(NNC(=O)c1ccc(O)cc1O)=C1C(=O)N(c2ccc(C)c(C)c2)N=C1C(F)(F)F [compound 94]			0.0033	95	
COC(=O)c1ccc(C(=O)NNC(C)=C2C(=O)N(c3ccc(C)c(C)c3)N=C2C(F)(F)F)cc1 [compound 95]			0.052	71	
CC(NNC(=O)c1ccc(C(=O)O)cc1)=C1C(=O)N(c2ccc(C)c(C)c2)N=C1C(F)(F)F [compound 96]			0.0033	93	
CC1=NN(c2ccc(C(C)(C)C)cc2)C(=O)C1=CNNC(=O)c1ccc(C(=O)O)cc1 [compound 97]			0.025	94	
COC(=O)c1ccc(C(=O)NNC(C)=C2C(=O)N(c3ccc(C(C)(C)C)cc3)N=C2C)s1 [compound 98]			0.031	96	
CC1=NN(c2ccc(C(C)(C)C)cc2)C(=O)C1=C(C)NNC(=O)c1ccc(C(=O)O)s1 [compound 99]			0.0039	110	
CC1=NN(c2ccc3ccccc3n2)C(=O)C1=C(C)NNC(=O)c1ccc(C(=O)O)cc1 [compound 100]			0.059	107	
COC(=O)c1ccc(C(=O)NNC(C)=C2C(=O)N(c3ccc(Cl)nn3)N=C2C)cc1 [compound 101]			0.018	100	
CC1=NN(c2ccc(C(F)(F)F)cn2)C(=O)C1=C(C)NNC(=O)c1ccc(C(=O)O)cc1 [compound 102]			0.069	100	
CC1=NN(c2ccc(C(C)(C)C)cc2)C(=O)C1=C(C)NNC(=O)c1ccc(-c2nnn[nH]2)cc1 [compound 103]				90	EC50 (human TPO receptor [2]; read-out: EC50T (concentration yielding 50% of the growth observed with 10 ng/ml TPO) (converted)): 10.5 nM

Reference: patent US8053453B2, “Pyrazolone compounds and thrombopoietin receptor activator” (Nissan Chemical Industries, Ltd., priority 2002, dated 2011)
